Converted amounts (≈) assume the structure as drawn. Structures can show the parent of a compound that is named as a salt. One block for each molecule: values may come before it.
Columns and labels:
[1] = system: Mycoplasma hyorhinis; test: Antimicrobial test, conventional agar plate dilution method, Mycoplasma hyorhinis; type: cell-based; conditions: for MIC: Mycoplasma, read-out: Minimum Inhibitory Concentration, Mycoplasma hyorhinis
Excerpt: (§1) ANTIMICROBIAL TEST AGAINST THREE STRAINS OF MYCOPLASMA
(§2) The test was effected by a conventional agar plate dilution method using the indicated strains of mycoplasma. The dithiocarbamic acid derivatives as shown below with Compound Nos. were employed in the test.

[2] = system: MRL-4 strain of mycoplasma pulmonis; test: Curative effect in mice infected with MRL-4 strain of mycoplasma pulmonis by oral administration in feed; type: in vivo; conditions: 10 days, after one month
Procedure: Each of the dithiocarbamic acid derivatives as indicated below with Compound No. was added to a feed and administered orally to mice infected artificially with MRL-4 strain of mycoplasma pulmonis. The effectiveness of the treatment was evaluated. Six groups, each group consisting of ten female mice which were negative in the test for mycoplasmosis, were used. After MRL-4 strain of mycoplasma pulmonis was cultured in PPLO agar medium, the colonies of the surface of the medium were diluted with a phosphate buffer solution to prepare a solution containing about 10^9 /ml of mycoplasma. 0.1 ml of the microbe-containing solution was injected intravenously to the tail of each mouse. For consecutive 10 days from the next day of the injection, the mice were fed with a powdery feed containing the active compound at respective concentrations of 0.04, 0.02, 0.01 and 0.005%, respectively. During the experiment period, all the procedures were conducted in a vinyl isolater.
After one month from the starting of the experiment, the presence of arthritis was visually investigated and at the same time the presence of pneumonia was also investigated after dissection. Recovery tests of mycoplasma and general bacteria were conducted using the joints and lungs of host subjects as the testing materials.

[3] = system: Mycoplasma pulmonis; test: Antimicrobial test, conventional agar plate dilution method, Mycoplasma pulmonis; type: cell-based; conditions: for MIC: Mycoplasma, read-out: Minimum Inhibitory Concentration, Mycoplasma pulmonis
Excerpt: as §1, §2

[4] = system: Mycoplasma gallisepticum; test: Antimicrobial test, conventional agar plate dilution method, Mycoplasma gallisepticum; type: cell-based; conditions: for MIC: Mycoplasmoides gallisepticum, read-out: Minimum Inhibitory Concentration, Mycoplasma gallisepticum
Excerpt: as §1, §2

MIC [1]: 0.39 µg/mL (≈ 1.43 µM) | MIC [3]: 0.2 µg/mL (≈ 0.731 µM) | MIC [4]: 0.05 µg/mL (≈ 0.183 µM)
SMILES: O=C1CCCCC1CSC(=S)N1CCOCC1 (stereo not shown) [Compound No. 12, 2-Oxocyclohexylmethyl 4-morpholinecarbodithioate]
Attack rate arthritis ([2]; 0.005% in feed): 6/10 | Attack rate pneumonia ([2]; 0.005% in feed): 0/10 | Recovery of mycoplasma joint ([2]; 0.005% in feed): 6/10 | Recovery of mycoplasma lung ([2]; 0.005% in feed): 0/10 | Attack rate arthritis ([2]; 0.01% in feed): 4/10 | Attack rate pneumonia ([2]; 0.01% in feed): 0/10 | Recovery of mycoplasma joint ([2]; 0.01% in feed): 4/10 | Recovery of mycoplasma lung ([2]; 0.01% in feed): 0/10 | Attack rate arthritis ([2]; 0.02% in feed): 1/10 | Attack rate pneumonia ([2]; 0.02% in feed): 0/10 | Recovery of mycoplasma joint ([2]; 0.02% in feed): 1/10 | Recovery of mycoplasma lung ([2]; 0.02% in feed): 0/10 | Attack rate arthritis ([2]; 0.04% in feed): 0/10 | Attack rate pneumonia ([2]; 0.04% in feed): 0/10 | Recovery of mycoplasma joint ([2]; 0.04% in feed): 0/10 | Recovery of mycoplasma lung ([2]; 0.04% in feed): 0/10

MIC [1]: 0.39 µg/mL (≈ 1.39 µM) | MIC [3]: 0.2 µg/mL (≈ 0.711 µM) | MIC [4]: 0.05 µg/mL (≈ 0.178 µM)
SMILES: CCN(CC)C(=S)SCCC(=O)c1ccccc1 [compound 24, 2-Benzoylethyl diethyldithiocarbamate]
Attack rate arthritis ([2]; 0.005% in feed): 4/10 | Attack rate pneumonia ([2]; 0.005% in feed): 0/10 | Recovery of mycoplasma joint ([2]; 0.005% in feed): 4/10 | Recovery of mycoplasma lung ([2]; 0.005% in feed): 0/10 | Attack rate arthritis ([2]; 0.01% in feed): 3/10 | Attack rate pneumonia ([2]; 0.01% in feed): 0/10 | Recovery of mycoplasma joint ([2]; 0.01% in feed): 3/10 | Recovery of mycoplasma lung ([2]; 0.01% in feed): 0/10 | Attack rate arthritis ([2]; 0.02% in feed): 2/10 | Attack rate pneumonia ([2]; 0.02% in feed): 0/10 | Recovery of mycoplasma joint ([2]; 0.02% in feed): 2/10 | Recovery of mycoplasma lung ([2]; 0.02% in feed): 0/10 | Attack rate arthritis ([2]; 0.04% in feed): 0/10 | Attack rate pneumonia ([2]; 0.04% in feed): 0/10 | Recovery of mycoplasma joint ([2]; 0.04% in feed): 0/10 | Recovery of mycoplasma lung ([2]; 0.04% in feed): 0/10

MIC [1]: 0.012 µg/mL (≈ 0.0547 µM) | MIC [3]: 0.012 µg/mL (≈ 0.0547 µM) | MIC [4]: 0.012 µg/mL (≈ 0.0547 µM)
SMILES: CCN(CC)C(=S)SCCC(C)=O [compound 79, 2-Acetylethyl diethyldithiocarbamate]
Attack rate arthritis ([2]; 0.005% in feed): 2/10 | Attack rate pneumonia ([2]; 0.005% in feed): 0/10 | Recovery of mycoplasma joint ([2]; 0.005% in feed): 2/10 | Recovery of mycoplasma lung ([2]; 0.005% in feed): 0/10 | Attack rate arthritis ([2]; 0.01% in feed): 0/10 | Attack rate pneumonia ([2]; 0.01% in feed): 0/10 | Recovery of mycoplasma joint ([2]; 0.01% in feed): 0/10 | Recovery of mycoplasma lung ([2]; 0.01% in feed): 0/10 | Attack rate arthritis ([2]; 0.02% in feed): 0/10 | Attack rate pneumonia ([2]; 0.02% in feed): 0/10 | Recovery of mycoplasma joint ([2]; 0.02% in feed): 0/10 | Recovery of mycoplasma lung ([2]; 0.02% in feed): 0/10 | Attack rate arthritis ([2]; 0.04% in feed): 0/10 | Attack rate pneumonia ([2]; 0.04% in feed): 0/10 | Recovery of mycoplasma joint ([2]; 0.04% in feed): 0/10 | Recovery of mycoplasma lung ([2]; 0.04% in feed): 0/10

MIC [1]: 0.025 µg/mL (≈ 0.108 µM) | MIC [3]: 0.05 µg/mL (≈ 0.216 µM) | MIC [4]: 0.05 µg/mL (≈ 0.216 µM)
SMILES: CC(=O)CCSC(=S)N1CCCCC1 [compound 88, 2-Acetylethyl 1-piperidinecarbodithioate]
Attack rate arthritis ([2]; 0.005% in feed): 3/10 | Attack rate pneumonia ([2]; 0.005% in feed): 0/10 | Recovery of mycoplasma joint ([2]; 0.005% in feed): 3/10 | Recovery of mycoplasma lung ([2]; 0.005% in feed): 0/10 | Attack rate arthritis ([2]; 0.01% in feed): 1/10 | Attack rate pneumonia ([2]; 0.01% in feed): 0/10 | Recovery of mycoplasma joint ([2]; 0.01% in feed): 1/10 | Recovery of mycoplasma lung ([2]; 0.01% in feed): 0/10 | Attack rate arthritis ([2]; 0.02% in feed): 0/10 | Attack rate pneumonia ([2]; 0.02% in feed): 0/10 | Recovery of mycoplasma joint ([2]; 0.02% in feed): 0/10 | Recovery of mycoplasma lung ([2]; 0.02% in feed): 0/10 | Attack rate arthritis ([2]; 0.04% in feed): 0/10 | Attack rate pneumonia ([2]; 0.04% in feed): 0/10 | Recovery of mycoplasma joint ([2]; 0.04% in feed): 0/10 | Recovery of mycoplasma lung ([2]; 0.04% in feed): 0/10

MIC [1]: 0.05 µg/mL (≈ 0.165 µM) | MIC [3]: 0.1 µg/mL (≈ 0.33 µM) | MIC [4]: 0.05 µg/mL (≈ 0.165 µM)
SMILES: CCN(CC)C(=S)SCc1oc(CO)cc(=O)c1O [compound 255, 5-Hydroxy-2-hydroxymethyl-4-oxo-4H-pyran-6-ylmethyl diethyldithiocarbamate]

MIC [1]: 0.39 µg/mL (≈ 1.29 µM) | MIC [3]: 0.78 µg/mL (≈ 2.59 µM) | MIC [4]: 0.78 µg/mL (≈ 2.59 µM)
SMILES: O=c1cc(CO)oc(CSC(=S)N2CCCC2)c1O [compound 258, 5-Hydroxy-2-hydroxymethyl-4-oxo-4H-pyran-6-ylmethyl-1-pyrrolidinecarbodithioate]

MIC [1]: 3.13 µg/mL (≈ 9.92 µM) | MIC [3]: 3.13 µg/mL (≈ 9.92 µM) | MIC [4]: 3.13 µg/mL (≈ 9.92 µM)
SMILES: O=c1cc(CO)oc(CSC(=S)N2CCCCC2)c1O [compound 261, 5-Hydroxy-2-hydroxymethyl-4-oxo-4H-pyran-6-ylmethyl-1-piperidinecarbodithioate]

MIC [1]: 0.78 µg/mL (≈ 2.46 µM) | MIC [3]: 0.78 µg/mL (≈ 2.46 µM) | MIC [4]: 0.2 µg/mL (≈ 0.63 µM)
SMILES: O=c1cc(CO)oc(CSC(=S)N2CCOCC2)c1O [compound 262, 5-Hydroxy-2-hydroxymethyl-4-oxo-4H-pyran-6-ylmethyl-4-morpholinecarbodithioate]

MIC [1]: 3.13 µg/mL (≈ 9.47 µM) | MIC [3]: 3.13 µg/mL (≈ 9.47 µM) | MIC [4]: 1.56 µg/mL (≈ 4.72 µM)
SMILES: CN1CCN(C(=S)SCc2oc(CO)cc(=O)c2O)CC1 [compound 263, 5-Hydroxy-2-hydroxymethyl-4-oxo-4H-pyran-6-ylmethyl-4-methyl-1-piperazinecarbodithioate]

MIC [1]: 0.39 µg/mL (≈ 0.82 µM) | MIC [3]: 0.39 µg/mL (≈ 0.82 µM) | MIC [4]: 0.39 µg/mL (≈ 0.82 µM)
SMILES: Cc1cc2c(c(O)c1CSC(=S)N(C)C)C1OCC34CCCC(C)(C)C3CCC(C)(O2)C14 (stereo not shown) [compound 265, 16-Dimethylthiocarbamoylthiomethylsiccanin]

MIC [1]: 0.1 µg/mL (≈ 0.199 µM) | MIC [3]: 0.1 µg/mL (≈ 0.199 µM) | MIC [4]: 0.1 µg/mL (≈ 0.199 µM)
SMILES: CCN(CC)C(=S)SCc1c(C)cc2c(c1O)C1OCC34CCCC(C)(C)C3CCC(C)(O2)C14 (stereo not shown) [compound 266, 16-Diethylthiocarbamoylthiomethylsiccanin]

MIC [1]: 1.56 µg/mL (≈ 3.01 µM) | MIC [3]: 1.56 µg/mL (≈ 3.01 µM) | MIC [4]: 1.56 µg/mL (≈ 3.01 µM)
SMILES: Cc1cc2c(c(O)c1CSC(=S)N1CCOCC1)C1OCC34CCCC(C)(C)C3CCC(C)(O2)C14 (stereo not shown) [compound 271, 16-(4-Morpholinethiocarbonylthiomethyl)siccanin]

MIC [1]: 0.39 µg/mL (≈ 0.735 µM) | MIC [3]: 0.39 µg/mL (≈ 0.735 µM) | MIC [4]: 0.39 µg/mL (≈ 0.735 µM)
SMILES: Cc1cc2c(c(O)c1CSC(=S)N1CCN(C)CC1)C1OCC34CCCC(C)(C)C3CCC(C)(O2)C14 (stereo not shown) [compound 272, 16-(4-Methyl-1-piperazinethiocarbonylthiomethyl)-siccanin]

SMILES: Cc1cc2c(c(O)c1CSC(=S)N1CCN(C)CC1)C1OCC34CCCC(C)(C)C3CCC(C)(O2)C14 (stereo not shown) [compound 273, 16-(4-Methyl-1-piperazinethiocarbonylthiomethyl)siccanin hydrochloride]
Minimum Inhibitory Concentration, Mycoplasma hyorhinis ([1]; hydrochloride): 0.78 µg/mL | Minimum Inhibitory Concentration, Mycoplasma pulmonis ([3]; hydrochloride): 0.78 µg/mL | Minimum Inhibitory Concentration, Mycoplasma gallisepticum ([4]; hydrochloride): 0.78 µg/mL
